How the values were obtained:
Assay type in all cases: cell-based
Klebsiella pneumonia = experiment: MIC against Gram-negative bacteria: Klebsiella pneumonia; conditions: 5×10^5 CFU/mL
Procedure, shortened: (§1)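 Bacteria grown in LB at 37° C with shaking to McFarland 0.5, pelleted and resuspended in fresh LB, then seeded at 5×10^5 CFU/mL per well. Purified recombinant human EGF domain proteins were two-fold serially diluted in triplicate and plates shaken at 37° C, 175 rpm. MIC is the lowest protein concentration with no bacterial growth.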

Citrobacter diversus = experiment: MIC against Gram-negative bacteria: Citrobacter diversus; conditions: 5×10^5 CFU/mL
Procedure, shortened: as §1

Moraxella catarrhalis = experiment: MIC against Gram-negative bacteria: Moraxella catarrhalis; conditions: 5×10^5 CFU/mL
Procedure, shortened: as §1

Aeromonas hydrophila = experiment: MIC against Gram-negative bacteria: Aeromonas hydrophila; conditions: 5×10^5 CFU/mL
Procedure, shortened: as §1

Serratia marcescens = experiment: MIC against Gram-negative bacteria: Serratia marcescens; conditions: 5×10^5 CFU/mL
Procedure, shortened: as §1

Pseudomonas aeruginosa = experiment: MIC against Gram-negative bacteria: Pseudomonas aeruginosa; conditions: 5×10^5 CFU/mL
Procedure, shortened: as §1

Proteus vulgaris = experiment: MIC against Gram-negative bacteria: Proteus vulgaris; conditions: 5×10^5 CFU/mL
Procedure, shortened: as §1

E. coli DH5α = experiment: Antibacterial activity: MIC and growth curve against E. coli DH5α in 96-well plate; conditions: minimal inhibitory concentration against E. coli DH5α; 96-well plate, 5×10^5 CFU/mL, 37° C., judged after 8 h
Procedure, shortened: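 MIC taken as lowest protein level with no bacterial growth, tracked by A600 every 30 min during 37 °C, 175 rpm culture. Two-fold protein series 50-12.5 μg/mL final, triplicate wells, against 5×10^5 CFU/mL of LB-washed mid-log cells.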

E. coli BL21 = experiment: MIC against Gram-negative bacteria: E. coli BL21; conditions: 5×10^5 CFU/mL
Procedure, shortened: as §1

Enterobacter cloacae = experiment: MIC against Gram-negative bacteria: Enterobacter cloacae; conditions: 5×10^5 CFU/mL
Procedure, shortened: as §1

Proteus mirabilis = experiment: MIC against Gram-negative bacteria: Proteus mirabilis; conditions: 5×10^5 CFU/mL
Procedure, shortened: as §1

[1] = K. pneumonia, 10 h cultivation at 37° C.
[2] = C. diversus, 10 h cultivation at 37° C.
[3] = M. catarrhalis, 10 h cultivation at 37° C.
[4] = A. hydrophila, 10 h cultivation at 37° C.
[5] = S. marcescens, 10 h cultivation at 37° C.
[6] = P. aeruginosa, 10 h cultivation at 37° C.
[7] = P. vulgaris, 10 h cultivation at 37° C.
[8] = E. coli BL21, 10 h cultivation at 37° C.
[9] = E. cloacae, 10 h cultivation at 37° C.
[10] = P. mirabilis, 10 h cultivation at 37° C.

Substance: PRT718 (MTLCSALNCQYQCHETPYGGACFCPPGYIINHNDSRTCV; listed as Homo sapiens)
- MIC K. pneumonia (Klebsiella pneumonia; 96-well plate, 37° C., 10 h): 25 µg/mL
- MIC C. diversus (Citrobacter diversus; 96-well plate, 37° C., 10 h): 25 µg/mL
- MIC M. catarrhalis (Moraxella catarrhalis; 96-well plate, 37° C., 10 h): 12.5 µg/mL
- MIC A. hydrophila (Aeromonas hydrophila; 96-well plate, 37° C., 10 h): 25 µg/mL
- MIC S. marcescens (Serratia marcescens; 96-well plate, 37° C., 10 h): 12.5 µg/mL
- MIC P. aeruginosa (Pseudomonas aeruginosa; 96-well plate, 37° C., 10 h): 50 µg/mL
- MIC P. vulgaris (Proteus vulgaris; 96-well plate, 37° C., 10 h): 50 µg/mL
- MIC (E. coli DH5α): 12.5 µg/mL
- MIC E. coli BL21 (E. coli BL21; 96-well plate, 37° C., 10 h): 25 µg/mL
- MIC E. cloacae (Enterobacter cloacae; 96-well plate, 37° C., 10 h): 25 µg/mL
- MIC P. mirabilis (Proteus mirabilis; 96-well plate, 37° C., 10 h): 25 µg/mL

Substance: PRT256 (CHLHARCVSQEGVARCRCLDGFEGDGFSC; listed as Homo sapiens)
- MIC (μg/mL) K. pneumonia (Klebsiella pneumonia; [1]): 12.5 µg/mL
- MIC (μg/mL) C. diversus (Citrobacter diversus; [2]): 25 µg/mL
- MIC (μg/mL) M. catarrhalis (Moraxella catarrhalis; [3]): 12.5 µg/mL
- MIC (μg/mL) A. hydrophila (Aeromonas hydrophila; [4]): 12.5 µg/mL
- MIC (μg/mL) S. marcescens (Serratia marcescens; [5]): 25 µg/mL
- MIC (μg/mL) P. aeruginosa (Pseudomonas aeruginosa; [6]): 25 µg/mL
- MIC (μg/mL) P. vulgaris (Proteus vulgaris; [7]): 12.5 µg/mL
- MIC (E. coli DH5α): 25 µg/mL
- MIC (μg/mL) E. coli BL21 (E. coli BL21; [8]): 12.5 µg/mL
- MIC (μg/mL) E. cloacae (Enterobacter cloacae; [9]): 25 µg/mL
- MIC (μg/mL) P. mirabilis (Proteus mirabilis; [10]): 25 µg/mL

Substance: PRT483 (DCRAVYDRYSDDFCSGHGQCNCGRCDCKAGWYGKKCE; listed as Homo sapiens)
- MIC against K. pneumonia (Klebsiella pneumonia; 96-well plate, 37° C., 10 h): 25 µg/mL
- MIC against C. diversus (Citrobacter diversus; 96-well plate, 37° C., 10 h): 50 µg/mL
- MIC against M. catarrhalis (Moraxella catarrhalis; 96-well plate, 37° C., 10 h): 25 µg/mL
- MIC against A. hydrophila (Aeromonas hydrophila; 96-well plate, 37° C., 10 h): 25 µg/mL
- MIC against S. marcescens (Serratia marcescens; 96-well plate, 37° C., 10 h): 50 µg/mL
- MIC against P. aeruginosa (Pseudomonas aeruginosa; 96-well plate, 37° C., 10 h): 50 µg/mL
- MIC against P. vulgaris (Proteus vulgaris; 96-well plate, 37° C., 10 h): 25 µg/mL
- MIC (E. coli DH5α): 12.5 µg/mL
- MIC against E. coli BL21 (E. coli BL21; 96-well plate, 37° C., 10 h): 25 µg/mL
- MIC against E. cloacae (Enterobacter cloacae; 96-well plate, 37° C., 10 h): 12.5 µg/mL
- MIC against P. mirabilis (Proteus mirabilis; 96-well plate, 37° C., 10 h): 12.5 µg/mL

Substance: PRT1434 (DVDECKYHPCYPGVHCINLSPGFRCDACPVGFTGPMVQ; listed as Homo sapiens)
- MIC against K. pneumonia (Klebsiella pneumonia; Klebsiella pneumonia, 10 h cultivation at 37° C.): 100 µg/mL
- MIC against C. diversus (Citrobacter diversus; Citrobacter diversus, 10 h cultivation at 37° C.): 25 µg/mL
- MIC against M. catarrhalis (Moraxella catarrhalis; Moraxella catarrhalis, 10 h cultivation at 37° C.): 12.5 µg/mL
- MIC against A. hydrophila (Aeromonas hydrophila; Aeromonas hydrophila, 10 h cultivation at 37° C.): 12.5 µg/mL
- MIC against S. marcescens (Serratia marcescens; Serratia marcescens, 10 h cultivation at 37° C.): 12.5 µg/mL
- MIC against P. aeruginosa (Pseudomonas aeruginosa; Pseudomonas aeruginosa, 10 h cultivation at 37° C.): 25 µg/mL
- MIC against P. vulgaris (Proteus vulgaris; Proteus vulgaris, 10 h cultivation at 37° C.): 12.5 µg/mL
- MIC (E. coli DH5α): 25 µg/mL
- MIC against E. coli BL21 (E. coli BL21; [8]): 12.5 µg/mL
- MIC against E. cloacae (Enterobacter cloacae; Enterobacter cloacae, 10 h cultivation at 37° C.): 25 µg/mL
- MIC against P. mirabilis (Proteus mirabilis; Proteus mirabilis, 10 h cultivation at 37° C.): 25 µg/mL

Substance: PRT63 (GCNFNNGGCHQDCFEGGDGSFLCGCRPGFRLLDDLVTCA; listed as Homo sapiens)
- MIC (μg/mL) K. pneumonia (Klebsiella pneumonia; Klebsiella pneumonia, 96-well plate, 37° C., 10 h): 25 µg/mL
- MIC (μg/mL) C. diversus (Citrobacter diversus; Citrobacter diversus, 96-well plate, 37° C., 10 h): 12.5 µg/mL
- MIC (μg/mL) M. catarrhalis (Moraxella catarrhalis; Moraxella catarrhalis, 96-well plate, 37° C., 10 h): 25 µg/mL
- MIC (μg/mL) A. hydrophila (Aeromonas hydrophila; Aeromonas hydrophila, 96-well plate, 37° C., 10 h): 25 µg/mL
- MIC (μg/mL) S. marcescens (Serratia marcescens; Serratia marcescens, 96-well plate, 37° C., 10 h): 12.5 µg/mL
- MIC (μg/mL) P. aeruginosa (Pseudomonas aeruginosa; Pseudomonas aeruginosa, 96-well plate, 37° C., 10 h): 12.5 µg/mL
- MIC (μg/mL) P. vulgaris (Proteus vulgaris; Proteus vulgaris, 96-well plate, 37° C., 10 h): 25 µg/mL
- MIC (E. coli DH5α): 12.5 µg/mL
- MIC (μg/mL) E. coli BL21 (E. coli BL21; E. coli BL21, 96-well plate, 37° C., 10 h): 25 µg/mL
- MIC (μg/mL) E. cloacae (Enterobacter cloacae; Enterobacter cloacae, 96-well plate, 37° C., 10 h): 12.5 µg/mL
- MIC (μg/mL) P. mirabilis (Proteus mirabilis; Proteus mirabilis, 96-well plate, 37° C., 10 h): 12.5 µg/mL

Substance: PRT152 (LPCPGGTERPCGGYGQCEGEGTRGGSGHCDCQAGYGGEACG; listed as Homo sapiens)
- MIC (μg/mL) K. pneumonia (Klebsiella pneumonia; [1]): 12.5 µg/mL
- MIC (μg/mL) C. diversus (Citrobacter diversus; [2]): 25 µg/mL
- MIC (μg/mL) M. catarrhalis (Moraxella catarrhalis; [3]): 12.5 µg/mL
- MIC (μg/mL) A. hydrophila (Aeromonas hydrophila; [4]): 12.5 µg/mL
- MIC (μg/mL) S. marcescens (Serratia marcescens; [5]): 12.5 µg/mL
- MIC (μg/mL) P. aeruginosa (Pseudomonas aeruginosa; [6]): 12.5 µg/mL
- MIC (μg/mL) P. vulgaris (Proteus vulgaris; [7]): 12.5 µg/mL
- MIC (E. coli DH5α): 12.5 µg/mL
- MIC (μg/mL) E. coli BL21 (E. coli BL21; [8]): 12.5 µg/mL
- MIC (μg/mL) E. cloacae (Enterobacter cloacae; [9]): 12.5 µg/mL
- MIC (μg/mL) P. mirabilis (Proteus mirabilis; [10]): 25 µg/mL

Substance: PRT604 (CPCNRFAELCDPETGSCFNCGGFTTGRNCERCIDGYYGNPSSGQPCRP; listed as Homo sapiens)
- MIC K. pneumonia (Klebsiella pneumonia; 96-well plate, 37° C., 10 h): 50 µg/mL
- MIC C. diversus (Citrobacter diversus; 96-well plate, 37° C., 10 h): 25 µg/mL
- MIC M. catarrhalis (Moraxella catarrhalis; 96-well plate, 37° C., 10 h): 12.5 µg/mL
- MIC A. hydrophila (Aeromonas hydrophila; 96-well plate, 37° C., 10 h): 12.5 µg/mL
- MIC S. marcescens (Serratia marcescens; 96-well plate, 37° C., 10 h): 25 µg/mL
- MIC P. aeruginosa (Pseudomonas aeruginosa; 96-well plate, 37° C., 10 h): 25 µg/mL
- MIC P. vulgaris (Proteus vulgaris; 96-well plate, 37° C., 10 h): 12.5 µg/mL
- MIC (E. coli DH5α): 50 µg/mL
- MIC E. coli BL21 (E. coli BL21; 96-well plate, 37° C., 10 h): 12.5 µg/mL
- MIC E. cloacae (Enterobacter cloacae; 96-well plate, 37° C., 10 h): 25 µg/mL
- MIC P. mirabilis (Proteus mirabilis; 96-well plate, 37° C., 10 h): 25 µg/mL

Source: US9833497B2, “Human originated EGF domain proteins and use of the same” (CHENGDU SOURCEBIO LIMITED-LIABILITY COMPANY, priority 2013, dated 2017)
